Columns and labels:
[1] = system: harmful plants such as Stellaria media, Lolium multiforum, Amaranthus retroflexus, Sinapis alba, Avena sativa and Setaria viridis; test: Pre-emergence effect on weeds (greenhouse pot test); format: in vivo; settings: application rate of 1 kg or less of active ingredient per hectare; scored after 3 to 4 weeks by comparison with untreated controls
Excerpt: Seeds or rhizome pieces of monocotyledonous and dicotyledonous weed plants were placed in sandy loam in plastic pots and covered with soil. The compounds according to the invention, which were formulated in the form of wettable powders or emulsion concentrates, were then applied to the surface of the soil cover as aqueous suspension or emulsion at various dosages with an application rate of 600 to 800 l of water per ha (converted).
After the treatment, the pots were placed into a greenhouse and kept under good growth conditions for the weeds. The plant or emergence damage was scored visually after the test plants have emerged after an experimental time of 3 to 4 weeks by comparison with untreated controls.

[2] = system: harmful plants such as Sinapis alba, Echinochloa crus-galli, Lolium multiflorum, Stellaria media, Cyperus iria, Amaranthus retroflexus, Setaria viridis, Avena …; test: Post-emergence effect on weeds (greenhouse pot test); format: in vivo; settings: application rate of 2 kg or less of active ingredient per hectare; treated in the three-leaf stage; scored after approx. 3 to 4 weeks by comparison with untreated controls

Row | Structure (SMILES) | pre-emergence control of harmful plants (plant or emergence damage scored visually) [1] | herbicidal post-emergence activity against harmful plants (scored visually) [2]
1 | Cc1ccc2c(c1)C(Nc1nc(N)nc(C(F)C#N)n1)C(C)C2 (mixture of isomers) [Compound 7.243] | very good pre-emergence control | very good herbicidal post-emergence activity
2 | CCC(F)c1nc(N)nc(NC2c3ccccc3CC2C)n1 (mixture of isomers) [Compound 9.36] | very good pre-emergence control | very good herbicidal post-emergence activity
3 | CC(F)c1nc(N)nc(NC2CCc3ccccc32)n1 (mixture of isomers) [Compound 10.1] | very good pre-emergence control | very good herbicidal post-emergence activity
4 | CCC(F)c1nc(N)nc(N[C@@H]2CCc3ccc(F)cc32)n1 (mixture of isomers) [Compound 10.38] | very good pre-emergence control | very good herbicidal post-emergence activity
5 | CCCC(F)c1nc(N)nc(NC2CCOc3c(C)cc(C)cc32)n1 (mixture of isomers) [Compound 10.67] | very good pre-emergence control | very good herbicidal post-emergence activity
6 | CCC(F)c1nc(N)nc(NC2CCCc3c(C)cc(C)cc32)n1 (mixture of isomers) [Compound 10.68] | very good pre-emergence control | very good herbicidal post-emergence activity
7 | C[C@@H](F)c1nc(N)nc(N[C@@H]2CCc3ccccc32)n1 [Compound 1.1] | very good pre-emergence control | very good herbicidal post-emergence activity
8 | Cc1ccc2c(c1)[C@H](Nc1nc(N)nc([C@@H](C)F)n1)CC2 [Compound 1.2] | very good pre-emergence control | very good herbicidal post-emergence activity
9 | C[C@@H](F)c1nc(N)nc(N[C@@H]2CCc3ccc(F)cc32)n1 [Compound 1.3] | very good pre-emergence control | very good herbicidal post-emergence activity
10 | Cc1cc2c(cc1C)[C@H](Nc1nc(N)nc([C@@H](C)F)n1)CC2 [Compound 1.7] | very good pre-emergence control | very good herbicidal post-emergence activity
11 | C[C@@H](F)c1nc(N)nc(N[C@@H]2CCCc3ccccc32)n1 [Compound 1.11] | very good pre-emergence control | very good herbicidal post-emergence activity
12 | Cc1ccc2c(c1)[C@H](Nc1nc(N)nc([C@@H](C)F)n1)CCC2 [Compound 1.12] | very good pre-emergence control | very good herbicidal post-emergence activity
13 | Cc1cc(C)c2c(c1)[C@H](Nc1nc(N)nc([C@@H](C)F)n1)CCC2 [Compound 1.15] | very good pre-emergence control | very good herbicidal post-emergence activity
14 | Cc1ccc2c(c1)[C@H](Nc1nc(N)nc([C@@H](C)F)n1)CCO2 [Compound 1.21] | very good pre-emergence control | very good herbicidal post-emergence activity
15 | C[C@@H](Cl)c1nc(N)nc(N[C@@H]2CCc3ccccc32)n1 [Compound 1.24] | very good pre-emergence control | very good herbicidal post-emergence activity

From US8114991B2, “Amino-1,3,5-triazines N-substituted with chiral bicyclic radicals, process for their preparation, compositions thereof, and their use as herbicides and plant growth regulators” (Bayer Cropscience AG, priority 2003, dated 2012)
